# Measured values as given in ChEMBL document CHEMBL1201862, “PubChem BioAssay data set” (2004).
# Activity calls are given as the source filed them. Cut-off read from the data, not from the text of the source, for most assays here: actives have a measured EC50 and inactives only a lower limit.
# Tests used:
# [1] = inhibitors of SNCA 5'UTR-driven translation, confirmation, luminescence, H4 neuroglioblastoma cells, dose confirmation (AID 2454); assay type: functional, cell-based;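 note: H4 neuroglioblastoma cells carrying an alpha-synuclein 5'UTR luciferase reporter; potency for inhibition of the luciferase signal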
# [2] = inhibitors of SNCA 5'UTR-driven reporter translation, confirmation, H4 neuroglioma cells, luminescence (AID 1988); assay type: functional, cell-based
# [3] = cells; assay type: functional, cell-based
# [4] = target: Luciferin 4-monooxygenase (Photinus pyralis, UniProt P08659); experiment: Counter Screen for Luciferase-based Assay Positives. [Related pubchem assays: 620, 618, 411 ]
# [5] = target: Glyceraldehyde-3-phosphate dehydrogenase (Homo sapiens, UniProt P04406)
# [6] = Luminescence Cell-Based Dose Response HTS to Identify Inhibitors of 5'UTR Stem-Loop Driven Prion Protein mRNA Translation in H4 Neuroglioblastoma Cells. [Related pubchem assays: 1827 (Project Summary), 1813 (Primary HTS)]; assay type: functional
# [7] = system: HT-1080; experiment: cytotoxicity in HT1080 fibrosarcoma cells, cell-based, fluorescence readout (AID 620); assay type: functional; details: Homo sapiens
# [8] = luciferase reporter signal reduction – luminescence, H4-C neuroglioblastoma cells, dose response (AID 2458); assay type: functional, cell-based;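 note: H4 neuroglioblastoma cells stably carrying a luciferase reporter gene fusion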
# [9] = inhibitors of firefly luciferase expression or activity, dose response, H4 neuroglioma cells, luminescence (AID 1990); assay type: functional, cell-based
# [10] = system: Vero; experiment: host cell cytotoxicity of antiviral hits, dose response, cytotoxicity control for West Nile virus antiviral project, secondary assay (AID 1650); assay type: functional; details: Chlorocebus sabaeus
# [11] = Luminescence Cell-Based Dose Retest to Confirm Inhibitors of Cancer Stem Cells. [Related pubchem assays (depositor defined):AID2717, AID2721]; assay type: functional; details: Homo sapiens
# [12] = Shn3 3'UTR reporter inhibitors, dose response, cell-based, Clone20 osteoblasts, firefly luciferase, cherry-picked (AID 624132); assay type: functional;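 note: firefly luciferase luminescence from reporter carrying the Shn3 3'UTR in osteoblasts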
# [13] = system: BJ; experiment: cells; assay type: functional, cell-based; details: Homo sapiens
# [14] = system: BJ; experiment: cytotoxicity toward BJ-TERT fibroblasts, dose response, cell-based, RAS-independent, luminescence (AID 1933); assay type: functional; details: Homo sapiens
# [15] = HepG2 cell cytotoxicity, dose response, cytotoxicity control for Shn3 inhibitor project, CellTiter-Glo, cherry-picked (AID 624134); assay type: functional, cell-based
# [16] = system: BJ; experiment: cytotoxicity toward BJ-TERT-LT-ST fibroblasts, dose response, cell-based, RAS-independent, luminescence (AID 1935); assay type: functional; details: Homo sapiens;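 note: BJ fibroblasts immortalized with TERT plus LT and ST oncogenes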
# [17] = cytotoxicity toward DRD oncogenic fibroblasts, dose response, cell-based, non-viral oncogenic, luminescence (AID 1934); assay type: functional; details: Homo sapiens
# [18] = reduction of Shn3 3'UTR firefly luciferase signal, dose response, Schnurri-3 inhibitor project, cell-based, Clone20 osteoblasts, cherry-pick, set 2 (AID 720490); assay type: functional;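 note: actives lower the luminescence signal as inhibitors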
# [19] = system: HeLa; experiment: Cytotoxicity counterscreen assay for transcriptional activators of heat shock protein 70 (Hsp70). [Related pubchem assays: 1203, 1252 ]; assay type: functional; details: Homo sapiens;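 note: cells exposed to compound for 16 hours before readout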
# [20] = A Cell Based Secondary Assay To Explore Cytotoxicity of Compounds that Sensitize Mycobacterium Tuberculosis to Beta-Lactam Antibiotics.; assay type: functional
# [21] = target: T1, Calpain-2 catalytic subunit (Sus scrofa, UniProt P43367); experiment: pig calpain II inhibitor potency, dose response, biochemical, fluorogenic peptide substrate (AID 1420); assay type: functional
# T1 sequence (P43367 whole entry): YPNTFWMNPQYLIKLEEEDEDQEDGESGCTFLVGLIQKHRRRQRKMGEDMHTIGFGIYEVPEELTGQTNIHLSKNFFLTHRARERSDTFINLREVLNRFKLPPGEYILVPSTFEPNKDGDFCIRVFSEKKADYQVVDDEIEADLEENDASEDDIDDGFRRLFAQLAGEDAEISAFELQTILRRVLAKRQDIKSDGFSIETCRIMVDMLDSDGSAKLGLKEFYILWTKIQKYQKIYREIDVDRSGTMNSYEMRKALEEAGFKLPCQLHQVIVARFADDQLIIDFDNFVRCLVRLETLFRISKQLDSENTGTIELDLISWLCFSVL
# [22] = inhibitors of intracellular T. cruzi replication, confirmation, NIH3T3 host cells, beta-gal luminescence (AID 2044); assay type: functional, cell-based;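 note: intracellular parasites grown in NIH/3T3 mouse fibroblasts as host cells; luminescent beta-galactosidase reporter signal from transgenic T. cruzi replicating inside host cells; inhibitors lower the luminescence signal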
# [23] = cytotoxicity toward NIH3T3 fibroblasts, dose response, counter-screen, cell-based, ATP luminescence, mouse fibroblasts (AID 2010); assay type: functional;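 note: cells exposed to compound for about 90 hours before reading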
# [24] = cells
# [25] = target: T2, Lytic switch protein BZLF1 (Epstein-Barr virus (strain B95-8) (HHV-4) (Human herpesvirus 4), UniProt P03206); experiment: EBV ZTA inhibitors, dose response, counter-screen for EBNA-1 inhibitor project, biochemical, fluorescence polarization, Epstein-Barr virus, 1536-well (AID 2377); design: species or system human gammaherpesvirus 4;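 note: fluorescence polarization of Cy5-labelled ZRE DNA probe bound by purified Zta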
# T2 sequence (P03206 whole entry): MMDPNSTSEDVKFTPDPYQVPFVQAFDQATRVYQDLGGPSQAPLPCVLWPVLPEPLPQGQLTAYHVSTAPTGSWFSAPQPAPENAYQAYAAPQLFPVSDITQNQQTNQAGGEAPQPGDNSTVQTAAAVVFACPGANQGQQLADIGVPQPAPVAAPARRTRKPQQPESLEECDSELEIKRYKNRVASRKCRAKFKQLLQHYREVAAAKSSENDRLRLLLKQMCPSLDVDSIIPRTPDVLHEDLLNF
# [26] = NIH-3T3 fibroblast cytotoxicity, dose response, cytotoxicity control, cell-based, fluorescence, Alamar Blue, secondary assay (AID 2327); assay type: functional;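 note: NIH-3T3 mouse fibroblasts cultured with fluconazole at 8 µg/mL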
# [27] = target: T3, Epstein-Barr nuclear antigen 1 (Epstein-Barr virus (strain B95-8) (HHV-4) (Human herpesvirus 4), UniProt P03211); experiment: EBNA-1 inhibitors, dose response, biochemical, fluorescence polarization, 1536-well (AID 2381); design: species or system human gammaherpesvirus 4;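 note: fluorescence polarization of a Cy5 DNA probe bound by EBNA-1 protein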
# T3 sequence (P03211 whole entry): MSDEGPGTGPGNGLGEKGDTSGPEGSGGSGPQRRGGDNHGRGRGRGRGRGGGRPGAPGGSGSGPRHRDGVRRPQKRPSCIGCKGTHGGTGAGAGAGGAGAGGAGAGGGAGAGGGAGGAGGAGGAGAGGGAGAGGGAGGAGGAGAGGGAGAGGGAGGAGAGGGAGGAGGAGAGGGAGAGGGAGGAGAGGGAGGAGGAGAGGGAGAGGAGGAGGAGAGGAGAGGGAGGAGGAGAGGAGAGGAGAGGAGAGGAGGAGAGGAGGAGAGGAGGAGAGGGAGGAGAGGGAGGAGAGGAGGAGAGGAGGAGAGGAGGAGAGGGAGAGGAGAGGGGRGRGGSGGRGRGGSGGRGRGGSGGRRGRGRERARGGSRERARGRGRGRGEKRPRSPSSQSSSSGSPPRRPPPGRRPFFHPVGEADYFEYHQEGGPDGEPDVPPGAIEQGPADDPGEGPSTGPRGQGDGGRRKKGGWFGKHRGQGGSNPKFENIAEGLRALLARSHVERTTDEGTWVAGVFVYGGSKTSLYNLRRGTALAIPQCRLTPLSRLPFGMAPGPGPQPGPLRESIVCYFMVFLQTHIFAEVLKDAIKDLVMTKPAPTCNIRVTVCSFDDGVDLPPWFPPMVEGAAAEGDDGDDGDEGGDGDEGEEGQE
# [28] = C. albicans growth with fluconazole, confirmation, fluorescence, retest (AID 2467); assay type: functional, cell-based
# [29] = target: Peroxisome proliferator-activated receptor gamma/Nuclear receptor coactivator 2 (Homo sapiens, UniProt P37231); experiment: TR-FRET dose response biochemical High Throughput Screening assay for agonists of the steroid receptor coactivator 2 (SRC-2) recruitment by the peroxisome proliferator-activated receptor gamma (PPAR gamma): non-selective agonists. [Related pubchem assays: 1297, 1032 ]; assay type: functional
# [30] = target: Peroxisome proliferator-activated receptor gamma/Nuclear receptor coactivator 3 (Homo sapiens, UniProt P37231); experiment: TR-FRET dose response biochemical High Throughput Screening assay for agonists of the steroid receptor coactivator 3 (SRC-3) recruitment by the peroxisome proliferator-activated receptor gamma (PPAR gamma): non-selective agonists. [Related pubchem assays: 1301 (Confirmation screen.), 1048 (Primary screen.)]; assay type: functional
# [31] = target: Peroxisome proliferator-activated receptor gamma/Nuclear receptor coactivator 1 (Homo sapiens, UniProt P37231); experiment: TR-FRET dose response biochemical High Throughput Screening assay for agonists of the steroid receptor coactivator 1 (SRC-1) recruitment by the peroxisome proliferator-activated receptor gamma (PPAR gamma): non-selective agonists. [Related pubchem assays (depositor defined):AID1300, AID1808, AID504735, AID631]; assay type: protein assay
# [32] = system: Streptococcus sp. 'group A'; experiment: growth inhibition of control SK(-) GAS strain, dose response, counter-screen for streptokinase expression inhibitor project, luminescence, kanamycin, BacTiterGlo, confirmation (AID 1900); assay type: functional, organism-based
# [33] = system: Streptococcus; experiment: Group A Streptococcus viability loss, dose response, counter-screen for streptokinase expression inhibitor project, luminescence, BacTiterGlo (AID 1915); assay type: functional, organism-based;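 note: potency for reduction of bacterial viability or growth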
# [34] = target: T4, Streptokinase A (Streptococcus pyogenes serotype M1, UniProt P10520); experiment: S. pyogenes streptokinase expression inhibitors, potency, dose response, plasminogen activation absorbance, OD405 (AID 1914); assay type: functional, Streptococcus pyogenes M1 GAS;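 note: secreted streptokinase activity via plasminogen activation per viability signal from cell pellet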
# T4 sequence (P10520 whole entry): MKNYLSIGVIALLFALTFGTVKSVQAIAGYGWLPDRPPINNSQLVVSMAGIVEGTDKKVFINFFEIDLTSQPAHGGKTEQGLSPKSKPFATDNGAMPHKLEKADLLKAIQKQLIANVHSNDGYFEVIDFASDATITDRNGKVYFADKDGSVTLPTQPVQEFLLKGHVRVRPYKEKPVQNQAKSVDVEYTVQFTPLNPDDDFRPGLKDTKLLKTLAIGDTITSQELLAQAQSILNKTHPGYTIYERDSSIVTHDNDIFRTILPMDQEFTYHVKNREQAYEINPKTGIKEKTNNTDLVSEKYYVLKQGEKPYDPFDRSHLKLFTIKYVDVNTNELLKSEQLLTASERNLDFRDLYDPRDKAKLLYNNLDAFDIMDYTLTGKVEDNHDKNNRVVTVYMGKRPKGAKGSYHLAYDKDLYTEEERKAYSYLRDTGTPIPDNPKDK
# Sequence of Luciferin 4-monooxygenase (P08659 whole entry): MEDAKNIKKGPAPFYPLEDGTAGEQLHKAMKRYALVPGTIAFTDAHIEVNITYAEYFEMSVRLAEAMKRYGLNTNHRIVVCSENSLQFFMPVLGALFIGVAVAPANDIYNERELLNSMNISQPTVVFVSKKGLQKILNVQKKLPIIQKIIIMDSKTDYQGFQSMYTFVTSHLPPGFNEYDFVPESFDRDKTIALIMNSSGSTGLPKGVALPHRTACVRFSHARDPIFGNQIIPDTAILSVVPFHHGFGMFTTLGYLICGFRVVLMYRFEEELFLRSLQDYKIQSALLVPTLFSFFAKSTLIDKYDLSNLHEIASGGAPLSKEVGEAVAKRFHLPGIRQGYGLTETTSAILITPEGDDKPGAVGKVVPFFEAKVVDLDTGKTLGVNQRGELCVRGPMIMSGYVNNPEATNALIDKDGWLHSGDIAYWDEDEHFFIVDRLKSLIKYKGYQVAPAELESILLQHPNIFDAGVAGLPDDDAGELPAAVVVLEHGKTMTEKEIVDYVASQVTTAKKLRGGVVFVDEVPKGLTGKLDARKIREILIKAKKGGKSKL
# Sequence of Peroxisome proliferator-activated receptor gamma/Nuclear receptor coactivator 2 (P37231 whole entry): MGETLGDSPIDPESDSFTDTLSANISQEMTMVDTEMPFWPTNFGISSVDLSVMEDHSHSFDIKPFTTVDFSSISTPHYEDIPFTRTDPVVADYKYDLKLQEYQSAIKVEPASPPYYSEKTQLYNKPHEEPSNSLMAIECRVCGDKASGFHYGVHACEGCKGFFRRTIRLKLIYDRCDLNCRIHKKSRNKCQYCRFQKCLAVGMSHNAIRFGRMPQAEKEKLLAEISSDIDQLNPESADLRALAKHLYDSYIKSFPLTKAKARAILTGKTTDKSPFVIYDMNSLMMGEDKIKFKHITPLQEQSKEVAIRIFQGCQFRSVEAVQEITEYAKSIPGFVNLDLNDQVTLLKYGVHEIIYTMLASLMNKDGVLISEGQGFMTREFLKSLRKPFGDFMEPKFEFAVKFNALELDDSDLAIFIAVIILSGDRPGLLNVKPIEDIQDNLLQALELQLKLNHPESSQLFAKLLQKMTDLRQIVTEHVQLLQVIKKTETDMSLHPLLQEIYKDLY
# Sequence of Peroxisome proliferator-activated receptor gamma/Nuclear receptor coactivator 2 (Q15596 whole entry, further chain): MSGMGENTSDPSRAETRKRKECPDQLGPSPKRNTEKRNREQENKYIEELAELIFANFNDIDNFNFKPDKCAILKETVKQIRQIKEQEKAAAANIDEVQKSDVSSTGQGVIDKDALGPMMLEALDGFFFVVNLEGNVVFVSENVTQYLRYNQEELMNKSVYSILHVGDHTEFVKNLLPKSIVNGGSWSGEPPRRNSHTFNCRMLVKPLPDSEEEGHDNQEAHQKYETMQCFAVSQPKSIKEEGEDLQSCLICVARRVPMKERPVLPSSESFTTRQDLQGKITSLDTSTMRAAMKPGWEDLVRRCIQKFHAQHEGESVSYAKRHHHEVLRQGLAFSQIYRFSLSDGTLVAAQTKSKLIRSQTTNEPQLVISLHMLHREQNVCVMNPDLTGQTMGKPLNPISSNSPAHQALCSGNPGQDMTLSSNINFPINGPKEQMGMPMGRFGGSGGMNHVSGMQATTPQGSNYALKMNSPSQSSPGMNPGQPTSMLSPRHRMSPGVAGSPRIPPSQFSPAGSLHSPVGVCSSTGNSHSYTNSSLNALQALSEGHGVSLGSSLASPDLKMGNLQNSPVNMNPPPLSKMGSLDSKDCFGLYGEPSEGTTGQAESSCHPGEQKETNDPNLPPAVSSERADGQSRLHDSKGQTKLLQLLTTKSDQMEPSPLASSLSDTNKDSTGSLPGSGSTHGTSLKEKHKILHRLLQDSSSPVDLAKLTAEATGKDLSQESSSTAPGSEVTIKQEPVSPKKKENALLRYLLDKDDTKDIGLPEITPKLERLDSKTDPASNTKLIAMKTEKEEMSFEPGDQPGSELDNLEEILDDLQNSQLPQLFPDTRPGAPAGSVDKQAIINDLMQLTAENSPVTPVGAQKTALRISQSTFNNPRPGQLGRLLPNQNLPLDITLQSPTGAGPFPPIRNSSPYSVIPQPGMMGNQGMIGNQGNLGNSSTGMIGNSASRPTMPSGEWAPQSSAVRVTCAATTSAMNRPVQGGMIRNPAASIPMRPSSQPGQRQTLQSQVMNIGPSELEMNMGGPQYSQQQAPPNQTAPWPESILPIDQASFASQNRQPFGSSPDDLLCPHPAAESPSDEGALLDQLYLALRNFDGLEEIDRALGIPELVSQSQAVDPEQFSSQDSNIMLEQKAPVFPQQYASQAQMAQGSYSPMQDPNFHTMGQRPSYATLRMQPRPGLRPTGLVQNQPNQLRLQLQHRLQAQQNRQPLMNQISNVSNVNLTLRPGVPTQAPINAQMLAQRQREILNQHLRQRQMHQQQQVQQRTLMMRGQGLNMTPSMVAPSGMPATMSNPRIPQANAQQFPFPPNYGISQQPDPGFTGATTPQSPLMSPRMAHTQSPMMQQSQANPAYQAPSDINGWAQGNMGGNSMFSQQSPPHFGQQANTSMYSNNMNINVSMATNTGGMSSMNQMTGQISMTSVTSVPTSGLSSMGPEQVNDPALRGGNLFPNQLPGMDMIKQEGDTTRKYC
# Sequence of Peroxisome proliferator-activated receptor gamma/Nuclear receptor coactivator 3 (P37231 whole entry): as the sequence (P37231 whole entry) above
# Sequence of Peroxisome proliferator-activated receptor gamma/Nuclear receptor coactivator 3 (Q9Y6Q9 whole entry, further chain): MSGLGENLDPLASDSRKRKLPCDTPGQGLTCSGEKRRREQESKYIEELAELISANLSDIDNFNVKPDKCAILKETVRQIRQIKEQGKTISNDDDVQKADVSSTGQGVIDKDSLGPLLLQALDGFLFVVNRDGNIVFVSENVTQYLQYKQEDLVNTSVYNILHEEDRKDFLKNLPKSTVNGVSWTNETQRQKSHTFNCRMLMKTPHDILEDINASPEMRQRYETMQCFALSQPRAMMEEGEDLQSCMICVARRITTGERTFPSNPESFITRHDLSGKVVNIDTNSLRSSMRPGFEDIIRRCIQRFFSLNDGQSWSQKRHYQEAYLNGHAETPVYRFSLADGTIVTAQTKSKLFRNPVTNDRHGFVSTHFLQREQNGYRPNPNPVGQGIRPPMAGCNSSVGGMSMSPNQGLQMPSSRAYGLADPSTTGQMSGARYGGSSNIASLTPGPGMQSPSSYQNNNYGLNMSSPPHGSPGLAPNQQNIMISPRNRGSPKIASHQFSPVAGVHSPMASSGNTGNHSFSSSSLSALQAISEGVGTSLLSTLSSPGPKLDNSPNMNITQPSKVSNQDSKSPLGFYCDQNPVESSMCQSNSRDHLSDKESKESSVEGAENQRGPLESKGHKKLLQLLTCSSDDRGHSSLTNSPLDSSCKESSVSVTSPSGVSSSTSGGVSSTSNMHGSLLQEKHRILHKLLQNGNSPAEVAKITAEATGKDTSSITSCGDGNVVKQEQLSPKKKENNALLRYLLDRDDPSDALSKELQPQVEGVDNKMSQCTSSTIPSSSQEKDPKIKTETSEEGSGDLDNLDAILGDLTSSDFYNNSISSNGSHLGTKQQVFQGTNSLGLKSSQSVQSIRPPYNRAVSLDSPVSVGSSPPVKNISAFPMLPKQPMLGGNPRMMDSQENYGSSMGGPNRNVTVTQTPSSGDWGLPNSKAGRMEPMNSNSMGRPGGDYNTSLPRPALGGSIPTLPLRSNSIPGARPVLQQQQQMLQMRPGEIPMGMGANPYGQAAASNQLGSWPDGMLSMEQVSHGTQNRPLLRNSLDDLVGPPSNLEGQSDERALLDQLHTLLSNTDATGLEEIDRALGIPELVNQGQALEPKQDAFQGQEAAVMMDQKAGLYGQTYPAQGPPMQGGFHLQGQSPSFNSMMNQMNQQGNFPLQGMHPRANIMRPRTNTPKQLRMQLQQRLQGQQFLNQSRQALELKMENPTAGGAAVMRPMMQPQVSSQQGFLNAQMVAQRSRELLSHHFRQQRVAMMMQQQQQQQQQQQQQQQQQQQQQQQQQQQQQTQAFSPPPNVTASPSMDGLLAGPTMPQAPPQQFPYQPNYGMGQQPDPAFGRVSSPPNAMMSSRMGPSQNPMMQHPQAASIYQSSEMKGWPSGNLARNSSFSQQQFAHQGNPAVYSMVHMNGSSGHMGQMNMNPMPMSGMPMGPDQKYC
# Sequence of Glyceraldehyde-3-phosphate dehydrogenase (P04406 whole entry): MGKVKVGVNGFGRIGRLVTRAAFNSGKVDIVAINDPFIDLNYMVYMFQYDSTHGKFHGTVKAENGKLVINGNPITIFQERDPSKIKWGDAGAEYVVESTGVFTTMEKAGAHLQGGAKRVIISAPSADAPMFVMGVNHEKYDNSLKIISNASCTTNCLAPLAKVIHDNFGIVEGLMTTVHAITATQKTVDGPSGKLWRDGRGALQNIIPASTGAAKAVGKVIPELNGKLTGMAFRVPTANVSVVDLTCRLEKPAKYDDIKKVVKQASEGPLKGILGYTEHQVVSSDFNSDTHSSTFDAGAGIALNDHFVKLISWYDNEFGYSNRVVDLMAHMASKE
smiles,measurement,setting,value
CCOC(=O)C1CCCCN1C(=O)CCc1c(C)nc2cc(-c3ccccc3)nn2c1C (configuration not stated),EC50,[1],1.33 µM (active)
same,EC50,[2],< 0.1 µM (active)
same,EC50,[3],> 12 µM (not active)
same,EC50,[4],> 100 µM (not active)
same,IC50,[5],> 100 µM (not active)
same,EC50,[6],11.1 µM (active)
same,EC50,[7],> 50 µM (not active)
same,EC50,[8],0.972 µM (active)
same,EC50,[9],< 0.1 µM (active)
Cc1ccc(NNC(=O)C(O)(c2cccc(C(F)(F)F)c2)c2cccc(C(F)(F)F)c2)cc1,CC50,[10],29.8 µM (active)
same,AC50,[11],1.14 µM (active)
COc1ccc(OCc2cccc(C(=O)O)c2)cc1,EC50,[1],0.267 µM (active)
same,EC50,[2],< 0.1 µM (active)
same,AC50,[12],1.39 µM (active)
same,EC50,[3],0.307 µM (active)
same,EC50,[13],8.86 µM (active)
same,EC50,[14],18.8 µM (active)
same,EC50,[6],0.121 µM (active)
same,AC50,[15],> 70 µM (inactive)
same,EC50,[16],> 150 µM (inconclusive)
same,EC50,[8],0.26 µM (active)
same,EC50,[9],0.305 µM (active)
same,EC50,[17],9.09 µM (inconclusive)
same,AC50,[18],2.01 µM (active)
COCCn1c(C)cc(C(=O)CSc2nc3ccccc3c(=O)n2C(C)COC)c1C (configuration not stated),CC50,[19],> 99 µM (not active)
CCc1ccc2c(c1)C(c1ccc([N+](=O)[O-])cc1)=NNC(c1ccc(C)cc1)=N2,CC50,[20],> 40 µM (active)
same,IC50,[21],15.6 µM (not active)
CCOc1cc(N2CCOCC2)c(OCC)cc1NC(=O)COc1cccc(CC)c1,CC50,[20],> 40 µM (active)
CCn1c(SCC(=O)c2ccccc2)nc2sc3c(c2c1=O)CCN(C)C3,EC50,[22],< 0.1 µM (active)
same,EC50,[23],> 60 µM (not active)
same,EC50,[24],0.061 µM (active)
O=C(CSc1nnc(-c2ccc(Br)cc2)o1)Nc1cccc2ccccc12,IC50,[25],> 111 µM (not active)
same,EC50,[26],> 150 µM (inconclusive)
same,IC50,[27],14.3 µM (not active)
same,EC50,[28],> 38 µM (not active)
O=C(CSc1ncnc2c1oc1ccccc12)Nc1cccc(F)c1,EC50,[29],15.6 µM (not active)
same,IC50,[25],> 111 µM (not active)
same,EC50,[30],> 79.4 µM (not active)
same,EC50,[31],> 26.5 µM (inactive)
same,IC50,[27],> 148 µM (not active)
Cn1c(O)c(N=NC(=O)c2cc(-c3cccs3)nc3ccccc23)c2ccccc21,EC50,[32],9.12 µM (active)
same,IC50,[25],> 111 µM (not active)
same,EC50,[33],16.7 µM (active)
same,IC50,[27],2.73 µM (active)
same,EC50,[34],> 150 µM (not active)
Cc1ccc(O)c(/C=N/NC(=O)C2=NNC(c3ccccc3)(c3ccccc3)C2)c1,EC50,[4],5.52 µM (active)
same,EC50,[7],> 50 µM (not active)
